This note sets out measurements from PubChem BioAssay AID624303 (The Scripps Research Institute Molecular Screening Center, 2012).

Activity calls are given as the source filed them.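 The calls were made as follows: active = inhibition of at least 2%; inactive = inhibition below 2%.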

Sequence of Tyrosine-protein kinase ABL1 (Homo sapiens) (P00519 whole entry, looked up): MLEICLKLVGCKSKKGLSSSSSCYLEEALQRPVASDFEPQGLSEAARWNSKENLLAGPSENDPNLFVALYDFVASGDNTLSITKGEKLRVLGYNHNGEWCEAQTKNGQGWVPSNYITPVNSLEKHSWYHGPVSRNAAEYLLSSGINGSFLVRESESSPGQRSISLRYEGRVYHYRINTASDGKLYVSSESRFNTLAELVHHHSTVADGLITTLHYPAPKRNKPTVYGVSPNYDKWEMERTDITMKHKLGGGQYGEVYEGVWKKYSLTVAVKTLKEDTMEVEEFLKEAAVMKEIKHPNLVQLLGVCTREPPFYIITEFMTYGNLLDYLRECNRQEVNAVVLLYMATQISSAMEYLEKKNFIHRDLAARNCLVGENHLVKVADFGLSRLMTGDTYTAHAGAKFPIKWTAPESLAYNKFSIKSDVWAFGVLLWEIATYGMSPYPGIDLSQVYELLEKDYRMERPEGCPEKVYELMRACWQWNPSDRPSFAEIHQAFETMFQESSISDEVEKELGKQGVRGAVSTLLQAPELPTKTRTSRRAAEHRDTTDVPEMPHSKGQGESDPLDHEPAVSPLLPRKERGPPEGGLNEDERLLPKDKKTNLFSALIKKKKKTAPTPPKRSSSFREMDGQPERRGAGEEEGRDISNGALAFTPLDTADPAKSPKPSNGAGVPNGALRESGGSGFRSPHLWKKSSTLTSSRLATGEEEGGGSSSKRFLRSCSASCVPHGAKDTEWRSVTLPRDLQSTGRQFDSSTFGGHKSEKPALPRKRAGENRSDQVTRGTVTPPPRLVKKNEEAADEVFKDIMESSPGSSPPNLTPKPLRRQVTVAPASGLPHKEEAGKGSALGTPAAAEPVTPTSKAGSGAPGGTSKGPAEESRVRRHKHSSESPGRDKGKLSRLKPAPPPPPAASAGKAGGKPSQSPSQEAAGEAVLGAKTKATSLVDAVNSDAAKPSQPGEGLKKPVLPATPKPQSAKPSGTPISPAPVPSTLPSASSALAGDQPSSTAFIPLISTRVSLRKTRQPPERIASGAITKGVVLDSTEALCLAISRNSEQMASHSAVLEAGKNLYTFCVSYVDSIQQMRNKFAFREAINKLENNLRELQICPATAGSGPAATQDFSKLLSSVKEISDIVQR

The experiment addresses Tyrosine-protein kinase ABL1 (Homo sapiens) (UniProt P00519). As to the kind of experiment: reduction of ABL1-mediated CRK phosphorylation – biochemical, purified CRK substrate, chemiluminescent immunoblot, powders, round 1, RIN1-ABL interaction inhibitor project, late-stage follow-up (AID 624303). The settings on record: purified ABL1 phosphorylating CRK, anti-pTyr chemiluminescence blot; at 10 µM; hits give high values. Background: In western blotting, separated proteins are transferred to a membrane and probed.
Broadly, the inhibition is how much of the control response was suppressed. As for `CN(C(=O)c1ccc(NC(=O)Cc2ccc(NC(=O)C3CCN(C(=O)c4cccc(F)c4)CC3)cc2)cc1)C1CC1`, the inhibition was 0% (inactive).

On to `Cc1c(C(=O)NCC(c2ccco2)N(C)C)oc2c(Cl)cccc12` (configuration not stated), for which the inhibition was 0% (inactive). For `CN(CCc1ccccc1)C(=O)c1ccc(NC(=O)Cc2ccc(NC(=O)C3CCN(C(=O)c4ccccc4)CC3)cc2)cc1`, the inhibition is 0% (inactive). As for `O=C(Cc1ccc(NC(=O)C2CCN(C(=O)C3CCCC3)CC2)cc1)Nc1ccc(C(=O)N2CCOCC2)cc1`, the inhibition was 0% (inactive). The same measure for `CC(=O)Nc1ccc(NC(=O)C2CCN(C(=O)c3cccs3)CC2)cc1`: 0% (inactive); for `CN(Cc1c(F)cccc1Cl)C(=O)CNC(=O)c1ccc2c(c1)OCO2`: 0% (inactive); for `O=C(c1cc(COc2cccc3cccnc23)on1)N1CCC[C@H]1CO`: 0% (inactive). As to `COc1ccc(C(=O)N2CCC(C(=O)Nc3ccc(CC(=O)Nc4ccc(C(=O)N(C)C5CC5)cc4)cc3)CC2)cc1`, the inhibition was 0% (inactive). With `CN(C(=O)c1ccc(NC(=O)Cc2ccc(NC(=O)C3CCN(C(=O)c4ccc(F)cc4)CC3)cc2)cc1)C1CC1`, the inhibition was 0% (inactive). For the compound `COc1cccc(CSc2nnc(CSc3nc4nc(C)cc(C)n4n3)s2)c1`, the inhibition was 0% (inactive). Consider `O=C(Cc1ccc(NC(=O)C2CCN(C(=O)c3ccccc3)CC2)cc1)Nc1ccc(C(=O)N2CCOCC2)cc1`, for which the inhibition was 0% (inactive). The same measure for `Cn1c(=O)c2c(nc(-n3ccnc3)n2Cc2ccc(Cl)cc2Cl)n(C)c1=O`: 0% (inactive); for `CSc1ccccc1OCc1cc(C(=O)N2CCNC(=O)C2)no1`: 0% (inactive).

For `CN(C(=O)c1ccc(NC(=O)Cc2ccc(NC(=O)C3CCN(C(=O)c4ccccc4)CC3)cc2)cc1)C1CC1`, the inhibition is 0% (inactive). `O=c1cc(OCc2ccccc2)cc[nH]1`: the inhibition was 0% (inactive). The same measure for `CCOC(=O)N1CCN(C(=O)Nc2ccc(NC(=O)N3CCN(C(=O)OCC)CC3)cc2)CC1`: 0% (inactive). With `COc1ccc(CCNc2cc(=O)[nH]c(N)n2)cc1` the figure was 0% (inactive). Turning to `CCOC(=O)N1CCC(NC(=O)CCc2nc(C3=CCN(C)CC3)no2)CC1`, the inhibition was 0% (inactive). Regarding `O=C(Cc1ccc(NC(=O)C2CCN(C(=O)C3CCCCC3)CC2)cc1)Nc1ccc(C(=O)N2CCOCC2)cc1`, the inhibition is 0% (inactive). On to `N#Cc1ccccc1Sc1ccccc1C(=O)NCC(c1ccco1)N1CCCC1` (configuration not stated), for which the inhibition was 0% (inactive). Turning to `CN(CCc1ccccc1)C(=O)c1ccc(NC(=O)Cc2ccc(NC(=O)C3CCN(C(=O)C4CCCC4)CC3)cc2)cc1`, the inhibition was 0% (inactive). Take `COc1ccc2oc(C(=O)NCC(c3ccco3)N(C)C)c(C)c2c1` (configuration not stated): the inhibition was 0% (inactive).
